Like-named read-outs stand apart in the source and are kept apart here. Numbered stars: 1 amine (or outer) side, 2 acyl side, 3 side chain; on linkers, the order of the positions; unused ones are H or OH. Side chains are listed from the residue outwards. Ends that are not written are not given here. Peptide text beside a SMILES is read from it. * marks the point of attachment. mPEG 3.4 kDa = 3.4 kDa maleimidated PEG on Cys; C18 diacid = O=C(O)CCCCCCCCCCCCCCCCC(=O)*; γGlu = O=C(O)[C@H](CCC(=O)[*:2])N[*:1]; Palmitoyl = CCCCCCCCCCCCCCCC(=O)*
Columns and labels:
GLP-2 = target: T1, GLP-2 (Homo sapiens, UniProt O95838); assay: GLP-2 activity, cell-based cAMP assay (same method as Example 2)
T1 sequence (O95838 1-553): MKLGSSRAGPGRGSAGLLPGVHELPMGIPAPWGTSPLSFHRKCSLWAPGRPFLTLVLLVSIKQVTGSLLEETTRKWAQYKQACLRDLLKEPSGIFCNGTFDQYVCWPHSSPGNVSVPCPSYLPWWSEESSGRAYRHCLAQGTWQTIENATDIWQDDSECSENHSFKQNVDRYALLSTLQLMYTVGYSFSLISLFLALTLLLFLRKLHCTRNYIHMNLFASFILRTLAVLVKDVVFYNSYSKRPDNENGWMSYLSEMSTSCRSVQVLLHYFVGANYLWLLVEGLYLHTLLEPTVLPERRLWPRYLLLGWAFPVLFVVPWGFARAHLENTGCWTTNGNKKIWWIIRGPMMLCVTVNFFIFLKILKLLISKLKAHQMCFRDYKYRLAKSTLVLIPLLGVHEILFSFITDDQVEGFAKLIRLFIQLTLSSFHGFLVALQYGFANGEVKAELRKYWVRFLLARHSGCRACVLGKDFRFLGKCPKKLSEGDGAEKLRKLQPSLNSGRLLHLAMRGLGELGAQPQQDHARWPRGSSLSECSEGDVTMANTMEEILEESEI

[1] = Mouse PK after single subcutaneous administration, LC-MS/MS of plasma; format: in vivo, mice; details: for AUC(0-t) / Cmax / half-life / Tmax: mouse, in vivo, sc; for Cmax: read-out: Cmax
Procedure: Each of the experimental groups and the control was subcutaneously administered once to the dorsal area of a total of 12 mice using a 1 mL syringe equipped with a 26-gauge needle at a dose of 0.2 mg/5 mL/kg. After drug administration, approximately 0.04 to 0.05 mL of blood was collected per individual at the time scheduled for the orbital vein (4 mice were alternately sampled), and the blood collection times were 1, 2, 4, 8, 24 ,32 ,48, 56, 72, 96, and 120 hours. All plasma samples were analyzed using a self-developed LC-MS/MS assay. Pharmacokinetic analysis of blood drugs was performed using non-compartmental analysis, and analysis of pharmacokinetic parameters was performed using Phoenix WinNolin 64 (Version. 8.3.5 340).

[2] = target: GLP-1R (on GLP-1R/CHO cells, DiscoverX 95-0062C2) (UniProt P43220 24-463); assay: cell-based or functional assay
Chain of GLP-1R (on GLP-1R/CHO cells, DiscoverX 95-0062C2) (P43220 24-463 limits assumed): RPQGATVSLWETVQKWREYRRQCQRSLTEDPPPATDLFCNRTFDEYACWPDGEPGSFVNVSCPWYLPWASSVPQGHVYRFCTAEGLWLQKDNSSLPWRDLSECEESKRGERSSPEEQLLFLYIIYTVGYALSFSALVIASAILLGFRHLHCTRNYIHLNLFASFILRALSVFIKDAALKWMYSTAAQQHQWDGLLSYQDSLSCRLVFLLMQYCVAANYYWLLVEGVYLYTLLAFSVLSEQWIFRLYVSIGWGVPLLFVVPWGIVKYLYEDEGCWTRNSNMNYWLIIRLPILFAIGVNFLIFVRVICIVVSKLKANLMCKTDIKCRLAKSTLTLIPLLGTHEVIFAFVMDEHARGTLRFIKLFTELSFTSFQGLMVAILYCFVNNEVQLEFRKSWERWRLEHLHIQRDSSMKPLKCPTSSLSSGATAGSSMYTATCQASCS

[3] = 0.2 mg/kg, C57BL/6N male mice, single subcutaneous dose 0.2 mg/5 mL/kg, plasma
[4] = 0.2 mg/kg, C57BL/6N male mice, single subcutaneous dose 0.2 mg/5 mL/kg, plasma, read-out: T1/2 (converted)
[5] = 0.2 mg/kg, C57BL/6N male mice, single subcutaneous dose 0.2 mg/5 mL/kg, plasma, read-out: Tmax

Molecule	AUC(0-t) [1, 3]	Cmax [1, 3]	half-life [1, 4]	Tmax [1, 5]	further results
HGEGTFTSDLSTYLDALAARDFINWLIQTKITD [HU020]					EC50 (GLP-2; Example 5): 650 nM
CC[C@H](C)[C@H](NC(=O)[C@H](Cc1ccccc1)NC(=O)[C@H](CC(=O)O)NC(=O)[C@H](CCCNC(=N)N)NC(=O)[C@H](C)NC(=O)[C@H](C)NC(=O)[C@H](CC(C)C)NC(=O)[C@H](C)NC(=O)[C@H](CC(=O)O)NC(=O)[C@H](CC(C)C)NC(=O)[C@H](Cc1ccc(O)cc1)NC(=O)[C@@H](NC(=O)[C@H](CO)NC(=O)[C@H](CC(C)C)NC(=O)[C@H](CC(=O)O)NC(=O)[C@H](CO)NC(=O)[C@@H](NC(=O)[C@H](Cc1ccccc1)NC(=O)[C@@H](NC(=O)CNC(=O)[C@H](CCC(=O)O)NC(=O)C(C)(C)NC(=O)[C@@H](N)Cc1c[nH]cn1)[C@@H](C)O)[C@@H](C)O)[C@@H](C)O)C(=O)N[C@@H](CC(N)=O)C(=O)N[C@@H](Cc1c[nH]c2ccccc12)C(=O)N[C@@H](CC(C)C)C(=O)N[C@H](C(=O)N[C@@H](CCC(N)=O)C(=O)N[C@H](C(=O)N[C@@H](CCCCN)C(=O)N[C@H](C(=O)N[C@H](C(=O)N[C@@H](CC(=O)O)C(=O)N[C@@H](CCCCN)C(=O)N[C@@H](CCCCNC(=O)CC[C@H](NC(=O)CCCCCCCCCCCCCCCCC(=O)O)C(=O)O)C(=O)O)[C@@H](C)O)[C@@H](C)CC)[C@@H](C)O)[C@@H](C)CC [HU020M4] (HELM PEPTIDE1{H.[Aib].E.G.T.F.T.S.D.L.S.T.Y.L.D.A.L.A.A.R.D.F.I.N.W.L.I.Q.T.K.I.T.D.K.K}|PEPTIDE2{[O=C(O)CCCCCCCCCCCCCCCCC(=O)[*:2]].[gGlu]}$PEPTIDE1,PEPTIDE2,35:R3-2:R2$$$V2.0)	23800 ng·h/mL	810 ng/mL	10.7 h	8 h	half-life longer than that of semaglutide ([1]; mouse PK, relative to semaglutide): 1.5 fold
CC[C@H](C)[C@H](NC(=O)[C@H](Cc1ccccc1)NC(=O)[C@H](CC(=O)O)NC(=O)[C@H](CCCNC(=N)N)NC(=O)[C@H](C)NC(=O)[C@H](C)NC(=O)[C@H](CC(C)C)NC(=O)[C@H](C)NC(=O)[C@H](CC(=O)O)NC(=O)[C@H](CC(C)C)NC(=O)[C@H](Cc1ccc(O)cc1)NC(=O)[C@@H](NC(=O)[C@H](CO)NC(=O)[C@H](CC(C)C)NC(=O)[C@H](CC(=O)O)NC(=O)[C@H](CO)NC(=O)[C@@H](NC(=O)[C@H](Cc1ccccc1)NC(=O)[C@@H](NC(=O)CNC(=O)[C@H](CCC(=O)O)NC(=O)C(C)(C)NC(=O)[C@@H](N)Cc1c[nH]cn1)[C@@H](C)O)[C@@H](C)O)[C@@H](C)O)C(=O)N[C@@H](CC(N)=O)C(=O)N[C@@H](Cc1c[nH]c2ccccc12)C(=O)N[C@@H](CC(C)C)C(=O)N[C@H](C(=O)N[C@@H](CCC(N)=O)C(=O)N[C@H](C(=O)N[C@@H](CCCCN)C(=O)N[C@H](C(=O)N[C@H](C(=O)N[C@@H](CC(=O)O)C(=O)N[C@@H](CCCCN)C(=O)N[C@@H](CCCCNC(=O)CC[C@H](NC(=O)CCCCCCCCCCCCCCCCCCC(=O)O)C(=O)O)C(=O)O)[C@@H](C)O)[C@@H](C)CC)[C@@H](C)O)[C@@H](C)CC [HU020M5] (HELM PEPTIDE1{H.[Aib].E.G.T.F.T.S.D.L.S.T.Y.L.D.A.L.A.A.R.D.F.I.N.W.L.I.Q.T.K.I.T.D.K.K}|PEPTIDE2{[O=C(O)CCCCCCCCCCCCCCCCCCC(=O)[*:2]].[gGlu]}$PEPTIDE1,PEPTIDE2,35:R3-2:R2$$$V2.0)	20500 ng·h/mL	661 ng/mL	15.2 h	8 h	
CC[C@H](C)[C@H](NC(=O)[C@H](Cc1ccccc1)NC(=O)[C@H](CC(=O)O)NC(=O)[C@H](CCCNC(=N)N)NC(=O)[C@H](C)NC(=O)[C@H](C)NC(=O)[C@H](CC(C)C)NC(=O)[C@H](C)NC(=O)[C@H](CC(=O)O)NC(=O)[C@H](CC(C)C)NC(=O)[C@H](Cc1ccc(O)cc1)NC(=O)[C@@H](NC(=O)[C@H](CO)NC(=O)[C@H](CC(C)C)NC(=O)[C@H](CC(=O)O)NC(=O)[C@H](CO)NC(=O)[C@@H](NC(=O)[C@H](Cc1ccccc1)NC(=O)[C@@H](NC(=O)CNC(=O)[C@H](CCC(=O)O)NC(=O)CNC(=O)[C@@H](N)Cc1c[nH]cn1)[C@@H](C)O)[C@@H](C)O)[C@@H](C)O)C(=O)N[C@@H](CC(N)=O)C(=O)N[C@@H](Cc1c[nH]c2ccccc12)C(=O)N[C@@H](CC(C)C)C(=O)N[C@H](C(=O)N[C@@H](CCC(N)=O)C(=O)N[C@H](C(=O)N[C@@H](CCCCN)C(=O)N[C@H](C(=O)N[C@H](C(=O)N[C@@H](CC(=O)O)C(=O)N[C@@H](CCCCN)C(=O)N[C@@H](CCCCNC(=O)CC[C@H](NC(=O)CCCCCCCCCCCCCCCCC(=O)O)C(=O)O)C(=O)O)[C@@H](C)O)[C@@H](C)CC)[C@@H](C)O)[C@@H](C)CC [HU020M1] (HELM PEPTIDE1{H.G.E.G.T.F.T.S.D.L.S.T.Y.L.D.A.L.A.A.R.D.F.I.N.W.L.I.Q.T.K.I.T.D.K.K}|PEPTIDE2{[O=C(O)CCCCCCCCCCCCCCCCC(=O)[*:2]].[gGlu]}$PEPTIDE1,PEPTIDE2,35:R3-2:R2$$$V2.0)					Tmax ([1]; male, C57BL/6N): 12 h; half-life ([1]; male, C57BL/6N): 13.8 h
CC[C@H](C)[C@H](NC(=O)[C@H](Cc1ccccc1)NC(=O)[C@H](CC(=O)O)NC(=O)[C@H](CCCNC(=N)N)NC(=O)[C@H](C)NC(=O)[C@H](C)NC(=O)[C@H](CC(C)C)NC(=O)[C@H](CC(N)=O)NC(=O)[C@H](CC(=O)O)NC(=O)[C@H](CC(C)C)NC(=O)[C@@H](NC(=O)[C@@H](NC(=O)[C@H](CC(N)=O)NC(=O)[C@H](CCSC)NC(=O)[C@H](CCC(=O)O)NC(=O)[C@H](CC(=O)O)NC(=O)[C@H](CO)NC(=O)[C@H](Cc1ccccc1)NC(=O)[C@H](CO)NC(=O)CNC(=O)[C@H](CC(=O)O)NC(=O)[C@H](C)NC(=O)[C@@H](N)Cc1c[nH]cn1)[C@@H](C)O)[C@@H](C)CC)C(=O)N[C@@H](CC(N)=O)C(=O)N[C@@H](Cc1c[nH]c2ccccc12)C(=O)N[C@@H](CC(C)C)C(=O)N[C@H](C(=O)N[C@@H](CCC(N)=O)C(=O)N[C@H](C(=O)N[C@@H](CCCCN)C(=O)N[C@H](C(=O)N[C@H](C(=O)N[C@@H](CC(=O)O)C(=O)O)[C@@H](C)O)[C@@H](C)CC)[C@@H](C)O)[C@@H](C)CC [GLP-2 (Synthesized), GLP-2, reference compound]					GLP-2 activity Compared to GLP-2 (GLP-2; Example 5, relative to GLP-2): 100%
CCCCCCCCCCCCCCCC(=O)N[C@@H](CCC(=O)NCCCC[C@H](NC(=O)[C@H](CCCCN)NC(=O)[C@H](CC(=O)O)NC(=O)[C@@H](NC(=O)[C@@H](NC(=O)[C@H](CCCCN)NC(=O)[C@@H](NC(=O)[C@H](CCC(N)=O)NC(=O)[C@@H](NC(=O)[C@H](CC(C)C)NC(=O)[C@H](Cc1c[nH]c2ccccc12)NC(=O)[C@H](CC(N)=O)NC(=O)[C@@H](NC(=O)[C@H](Cc1ccccc1)NC(=O)[C@H](CC(=O)O)NC(=O)[C@H](CCCNC(=N)N)NC(=O)[C@H](C)NC(=O)[C@H](C)NC(=O)[C@H](CC(C)C)NC(=O)[C@H](C)NC(=O)[C@H](CC(=O)O)NC(=O)[C@H](CC(C)C)NC(=O)[C@H](Cc1ccc(O)cc1)NC(=O)[C@@H](NC(=O)[C@H](CO)NC(=O)[C@H](CC(C)C)NC(=O)[C@H](CC(=O)O)NC(=O)[C@H](CO)NC(=O)[C@@H](NC(=O)[C@H](Cc1ccccc1)NC(=O)[C@@H](NC(=O)CNC(=O)[C@H](CCC(=O)O)NC(=O)C(C)(C)NC(=O)[C@@H](N)Cc1c[nH]cn1)[C@@H](C)O)[C@@H](C)O)[C@@H](C)O)[C@@H](C)CC)[C@@H](C)CC)[C@@H](C)O)[C@@H](C)CC)[C@@H](C)O)C(=O)O)C(=O)O [HU020M3] (HELM PEPTIDE1{H.[Aib].E.G.T.F.T.S.D.L.S.T.Y.L.D.A.L.A.A.R.D.F.I.N.W.L.I.Q.T.K.I.T.D.K.K}|PEPTIDE2{[CCCCCCCCCCCCCCCC(=O)[*:2]].[gGlu]}$PEPTIDE1,PEPTIDE2,35:R3-2:R2$$$V2.0)	5070 ng·h/mL	315 ng/mL	7 h	12 h	
HGEGTFTSDLSTYLDALAAC(mPEG 3.4 kDa)DFINWLIQTKITDKK([γGlu-Palmitoyl]) [HU020M6]					GLP-1 activity (EC50, pM) [2]: 45.7 pM; GLP-1 activity, Compared to GLP-1 (Exendin-4) [2]: 15.5%
HGEGTFTSDLSTYLDALAARDFINWLIQTKITDKK([γGlu-C18 diacid]) [HU020M1]					GLP-1 activity (EC50, pM) [2]: 113 pM; GLP-1 activity, Compared to GLP-1 (Exendin-4) [2]: 6.3%

From patent EP4741420A1, “PHARMACEUTICAL COMPOSITION FOR PREVENTING OR TREATING OBESITY COMPRISING GLP ANALOGUE AS ACTIVE INGREDIENT” (priority 2023, dated 2025)
